Test results reported in PubChem BioAssay AID2060626 (Molecular Pharmacology Branch, DTP, NCI, 2025).
Where “and” joins values, the source holds several entries; their conditions need not be identical. Identical values can stand only once.

Test system: 168753-222-R-J1-PDC complex spheroid viability
Test: Anticancer human tumor 168753-222-R-J1-PDC patient-derived bladder carcinoma cell line growth inhibition [CLK]
Conditions: for viability, T/C: stronger effect = lower value; active = viability on the fitted dose curve at most 10% of control; inactive = the rest
Method in brief: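 Patient-derived tumor cells grown as complex spheroids with HUVEC endothelial cells and mesenchymal stem cells, treated with drug combinations. Concentrations descend in half-log steps from near clinical Cmax, or from 10 microM if Cmax unknown.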

[1] = curve of first compound, second compound 0.0316 µM
[2] = curve of first compound, second compound 0.1 µM
[3] = curve of first compound, second compound 0.316 µM
[4] = curve of first compound, second compound 1 µM
[5] = curve of first compound, second compound 3.16 µM
[6] = curve of first compound, second compound 10 µM
[7] = second compound 0.0316 µM, first compound 0.0316 µM
[8] = second compound 0.0316 µM, first compound 0.1 µM
[9] = second compound 0.0316 µM, first compound 0.316 µM
[10] = second compound 0.0316 µM, first compound 1 µM
[11] = second compound 0.0316 µM, first compound 3.16 µM
[12] = second compound 0.0316 µM, first compound 10 µM
[13] = second compound 0.1 µM, first compound 0.0316 µM
[14] = second compound 0.1 µM, first compound 0.1 µM
[15] = second compound 0.1 µM, first compound 0.316 µM
[16] = second compound 0.1 µM, first compound 1 µM
[17] = second compound 0.1 µM, first compound 3.16 µM
[18] = second compound 0.1 µM, first compound 10 µM
[19] = second compound 0.316 µM, first compound 0.0316 µM
[20] = second compound 0.316 µM, first compound 0.1 µM
[21] = second compound 0.316 µM, first compound 0.316 µM
[22] = second compound 0.316 µM, first compound 1 µM
[23] = second compound 0.316 µM, first compound 3.16 µM
[24] = second compound 0.316 µM, first compound 10 µM
[25] = second compound 1 µM, first compound 0.0316 µM
[26] = second compound 1 µM, first compound 0.1 µM
[27] = second compound 1 µM, first compound 0.316 µM
[28] = second compound 1 µM, first compound 1 µM
[29] = second compound 1 µM, first compound 3.16 µM
[30] = second compound 1 µM, first compound 10 µM
[31] = second compound 3.16 µM, first compound 0.0316 µM
[32] = second compound 3.16 µM, first compound 0.1 µM
[33] = second compound 3.16 µM, first compound 0.316 µM
[34] = second compound 3.16 µM, first compound 1 µM
[35] = second compound 3.16 µM, first compound 3.16 µM
[36] = second compound 3.16 µM, first compound 10 µM
[37] = second compound 10 µM, first compound 0.0316 µM
[38] = second compound 10 µM, first compound 0.1 µM
[39] = second compound 10 µM, first compound 0.316 µM
[40] = second compound 10 µM, first compound 1 µM
[41] = second compound 10 µM, first compound 3.16 µM
[42] = second compound 10 µM, first compound 10 µM
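Note: viability measured after seven days of drug exposure.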
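Throughout, for viability, T/C: luminescence signal used as surrogate for viable cell amount; 100% = DMSO vehicle control wells.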

C=C(F)C(=O)N1CCN(c2nc(OCC3CCCN3C)nc3c2CCN(c2cccc4cccc(Cl)c24)C3)CC1CC#N (stereo not drawn) + CN1CCN(c2cc(C(=O)Nc3cc4cc(-c5cnn(C)c5)ccc4cn3)ccn2)CC1
1.23 µM: IC50 [2]
active: viability, T/C [12] 0.91% | viability, T/C [18] 0.32% | viability, T/C [22] 8.4% | viability, T/C [23] 4.48% | viability, T/C [24] 1.3% | viability, T/C [25] 0.47% | viability, T/C [26] 0.78% | viability, T/C [27] 0.38% | viability, T/C [28] 0.16% | viability, T/C [29] 0.12% | viability, T/C [30] 1.07% | viability, T/C [31] 0.26% | viability, T/C [32] 0.24% | viability, T/C [33] 0.44% | viability, T/C [34] 0.14% | viability, T/C [35] 0.87% | viability, T/C [36] 0.23% | viability, T/C [37] 0.27% | viability, T/C [38] 0.19% | viability, T/C [39] 0.28% | viability, T/C [40] 0.24% | viability, T/C [41] 0.36% | viability, T/C [42] 2.34%
3.26 µM: IC50 [1]
inactive: viability, T/C [7] 89.1% | viability, T/C [8] 111% | viability, T/C [9] 85.8% | viability, T/C [10] 101% | viability, T/C [11] 51.4% | viability, T/C [13] 58.7% | viability, T/C [14] 46.7% | viability, T/C [15] 63.5% | viability, T/C [16] 56.3% | viability, T/C [17] 21.8% | viability, T/C [19] 15.6% | viability, T/C [20] 13% | viability, T/C [21] 11.8%
< 0.0316 µM: IC50 [3] | IC50 [4] | IC50 [5] | IC50 [6]

CCCS(=O)(=O)Nc1ccc(F)c(C(=O)c2c[nH]c3ncc(-c4ccc(Cl)cc4)cc23)c1F
inactive: viability, T/C (compound 0.0316 µM) 91.7% and 104% | viability, T/C (compound 0.1 µM) 108% and 107% | viability, T/C (compound 0.316 µM) 103% and 113% | viability, T/C (compound 1 µM) 132% and 115% | viability, T/C (compound 3.16 µM) 120% and 118% | viability, T/C (compound 10 µM) 71.7% and 76.3%
> 10 µM: IC50 (curve of compound)

CCCS(=O)(=O)Nc1ccc(F)c(C(=O)c2c[nH]c3ncc(-c4ccc(Cl)cc4)cc23)c1F + CN1CCN(c2cc(C(=O)Nc3cc4cc(-c5cnn(C)c5)ccc4cn3)ccn2)CC1
< 0.0316 µM: IC50 [3] | IC50 [4] | IC50 [5] | IC50 [6]
active: viability, T/C [25] 0.38% | viability, T/C [26] 0.46% | viability, T/C [27] 0.31% | viability, T/C [28] 0.33% | viability, T/C [29] 0.96% | viability, T/C [30] 2.48% | viability, T/C [31] 0.11% | viability, T/C [32] 1.81% | viability, T/C [33] 0.12% | viability, T/C [34] 0.11% | viability, T/C [35] 2.3% | viability, T/C [36] 1.36% | viability, T/C [37] 0.16% | viability, T/C [38] 2.21% | viability, T/C [39] 0.61% | viability, T/C [40] 0.3% | viability, T/C [41] 3.61% | viability, T/C [42] 3.12%
inactive: viability, T/C [7] 96.7% | viability, T/C [8] 116% | viability, T/C [9] 112% | viability, T/C [10] 122% | viability, T/C [11] 112% | viability, T/C [12] 59.5% | viability, T/C [13] 80.1% | viability, T/C [14] 94.7% | viability, T/C [15] 58.3% | viability, T/C [16] 88.5% | viability, T/C [17] 86.5% | viability, T/C [18] 41.5% | viability, T/C [19] 15.8% | viability, T/C [20] 17.8% | viability, T/C [21] 16% | viability, T/C [22] 14.7% | viability, T/C [23] 20.1% | viability, T/C [24] 22.1%
> 10 µM: IC50 [1]
7.83 µM: IC50 [2]

Nc1ccccc1NC(=O)c1ccc(CNC(=O)OCc2cccnc2)cc1 + CN1CCN(c2cc(C(=O)Nc3cc4cc(-c5cnn(C)c5)ccc4cn3)ccn2)CC1
< 0.0316 µM: IC50 [2] | IC50 [3] | IC50 [4] | IC50 [5] | IC50 [6]
0.554 µM: IC50 [1]
active: viability, T/C [12] 7.33% | viability, T/C [18] 0.13% | viability, T/C [20] 8.55% | viability, T/C [21] 7.31% | viability, T/C [22] 7.09% | viability, T/C [23] 0.22% | viability, T/C [24] 0.07% | viability, T/C [25] 0.13% | viability, T/C [26] 0.23% | viability, T/C [27] 0.08% | viability, T/C [28] 0.05% | viability, T/C [29] 0.16% | viability, T/C [30] 0.89% | viability, T/C [31] 0.79% | viability, T/C [32] 0.08% | viability, T/C [33] 0.09% | viability, T/C [34] 0.06% | viability, T/C [35] 0.71% | viability, T/C [36] 0.95% | viability, T/C [37] 0.06% | viability, T/C [38] 0.23% | viability, T/C [39] 0.32% | viability, T/C [40] 0.1% | viability, T/C [41] 0.24% | viability, T/C [42] 1.08%
inactive: viability, T/C [7] 96.5% | viability, T/C [8] 58.7% | viability, T/C [9] 54.6% | viability, T/C [10] 54% | viability, T/C [11] 24.3% | viability, T/C [13] 50% | viability, T/C [14] 41.3% | viability, T/C [15] 38.2% | viability, T/C [16] 43.9% | viability, T/C [17] 22.6% | viability, T/C [19] 9.09%
